In patent US20210244712A1, “METHODS FOR TREATING PATIENTS WITH CANCER HAVING DEFECTS IN CYCLIN D REGULATION” (NysnoBio Ireland DAC, priority 2018, published 2021):

Columns and labels:
Format in all cases: cell-based
cyclin D1 = assay: Western blot of cellular biomarker cyclin D1
Description: (§1) Various cancer cells lines were treated with Compound 42 or palbociclib (control) to measure the expression of cyclin D, cyclin E, pRb, and Rb.
(§2) Day 1: 6 well plate was seeded with 3×10^5 cells/well with a final volume of 3 mL and incubated for 24 hours at 37° C.
(§3) Day 2: The media was removed and Compound 42 (see below for dose) or palbociclib (1 μM) as positive control were added to the wells the desired concentration in cell culture media, giving a final volume of 3 mL per well. The plate was incubated for 24 hours at 37° C. (or desired period).
(§4) Day 3: The media was removed from wells and washed ×3 with PBS. 500 μl of trypsin was added to the wells and incubate until cells detach. 500 μl media was added to neutralise trypsin, transferred to 2 ml Eppendorfs, and centrifuged (1500 RPM for 5 minutes). While spinning, the wells were washed with 1 mL PBS to collect any remaining cells. This wash was used to centrifuged cell pellet. After the first spin, the supernatant was discarded and the pellet was washed with PBS collected from the previous step. The centrifugation step was repeated and the supernatant was discarded and the pellet wash again with fresh PBS. The centrifugation and wash with PBS was repeated one more time. RIPA cell lysate buffer was prepared and Protease Inhibitor Cocktail was included. The supernatant was discarded and […] RIPA cell lysate buffer was added to the pellet. The protein concentration was determined using the BCA assay kit.
(§5) Day 4: Western blot analysis was performed. 4-12% Bis-Tris gel and MOPS running buffer was used. The running buffer was made to sufficient volume of running buffer to 1× concentration. 20 μg protein (v/v loading & reducing buffer) of each sample was loaded into wells. Some proteins may require more, or less, protein loaded. The gel was ran at standard settings 200 V for 45 minutes. Once gel has run, the gel was transferred for 7 minutes using the iBlot Blotting System. The membrane was blocked using 5% non-fat powdered milk* made up in 1×TBS containing 0.1% Tween (TBS-T and incubated for 1 hr with gentle rocking. The observation from the Western blot analysis is quantified in FIGS. 2-7D.
Cell lines A2780 (ovarian cell line with no cyclin D pathway mutations), ES-2 (ovarian cell line with cyclin D amplification, p53 mutation), OAW42, and SW626 were treated with DMSO (control), 250 nM of Compound 42, or 1 μM of Palbociclib. Treated cells were incubated for 24 hours and data represented in FIGS. 2-5 represents n=3.

Rb = assay: Western blot of cellular biomarker Rb
Description: as §1, §2, §3, §4
as §5, with “Once gel has run, the gel was transferred for 7 minutes using the iBlot Blotting System.” left out, “2-7D. […]” for “2-7D.”

Cyclin D = assay: Western blot of cellular biomarker cyclin D
Description: as §1, §2, §3, §4, §5
Cell line JEKO-1 (mantle cell line with cyclin D chromosome translocation, amplification of cyclin D) was treated with DMSO (control), 500 nM of Compound 42, or 1 μM of Palbociclib. Treated cells were incubated for 48 hours and data represented in FIGS. 6A-6C represents n=1.

pRb = assay: Western blot of cellular biomarker pRb
Description: as §1, §2, §3, §4
as §5, with “Once gel has run, the gel was transferred for 7 minutes using the iBlot Blotting System.” left out, “2-7D. […]” for “2-7D.”

SW626 = assay: Cell proliferation assay; conditions: Homo sapiens; Table 7a; Ovarian (SW626)
HCT-116 = assay: Senescence quantification (SA-βGal), Example 6A; conditions: Compound 42 250 nM, Palbociclib 1 μM, compared to control (DMSO)
Description: Day 1: 96 well plate was seeded with 4000 cells/well and incubated for 24 hours at 37° C. […]
Day 6: Senescence cells histochemical Staining Kit (Sigma) was used. The growth medium form the cells were aspirated then washed twice with fresh […]. […] 100 μL filtered Fixation Buffer was added per well and the plate was incubated for 6-7 minutes at room temperature. Then, the cells were rinsed 3 times with PBS. 50 μL of the Staining Mixture was added per well and incubated at 37° C. overnight without CO2 (staining is pH dependent). After staining, the Staining Mixture was removed, PBS and Hoechst dye (1 μg/mL) were added. Ten images were taken with Epifluorescence Microscope using the blue filter and 10 images were taken in the brightfield. The images were used to count the total cell number—the positive blue cells were counted in the bright field. The percentage of cells expressing β-galactosidase was calculated.
Method 1: Mammalian β-Galactosidase Assay Kit (Thermo Scientific) was used. […] The cells were washed once with PBS. 100 μL of the β-Galactosidase Assay Reagent was added to each well and the plate was covered and incubated for 30 minutes at 37° C. without CO2. The absorbance was measured at 405 nm. […]
Method 2: Assay of a portion of the lysate. […] 25 μL of lysate was removed and use it for Protein Quantification (BCA). […]
Senescence was quantified according to Example 4. […]

ES-2 = assay: Cell proliferation assay; conditions: Homo sapiens
[1] = HT116, with increasing concentration
[2] = OAW42, 250 nM Compound 42, 24 hours, compared to palbociclib 1 μM

Cc1ccccc1C(=O)Nc1nc(NC(=O)c2ccccc2C)n(-c2ccc(OC(F)(F)F)cc2)n1 [Compound 42, N,N′-(1-(4-(trifluoromethoxy)phenyl)-1H-1,2,4-triazole-3,5-diyl)bis(2-methylbenzamide)] was tested, and the “Cyclin D1 expression” value (cyclin D1; A2780, 250 nM Compound 42, 1 μM Palbociclib, 24 hours) was “reduction of cyclin D1 expressions”, the “Cyclin D1 expression” value (cyclin D1; ES-2, 250 nM Compound 42, 1 μM Palbociclib, 24 hours) was “reduction of cyclin D1 expressions” and the “Cyclin D1 expression” value (cyclin D1; [1]) was “reduction”. The “Cyclin D1 expression” value (cyclin D1; OAW42, 250 nM Compound 42, 1 μM Palbociclib, 24 hours) was “reduction of cyclin D1 expressions”, the “Cyclin D1 expression” value (cyclin D1; SW626, 250 nM Compound 42, 1 μM Palbociclib, 24 hours) was “reduction of cyclin D1 expressions” and the Rb expression (Rb; ES-2, 250 nM Compound 42, 24 hours, compared to palbociclib 1 μM) was “reduction of Rb expression”. For the same compound, the Rb expression (Rb; [1]) was “reduction”, the Rb expression (Rb; [2]) was “reduction of Rb expression” and the “normalization of cyclin D” value (Cyclin D; HCT-116 (p16 mutation), Compound 42 250 nM, Palbociclib 1 μM) was “normalized cyclic D”. The “cyclin D expression” value (Cyclin D; [1]) was “reduction”, the “cyclin D expression” value (Cyclin D; JEKO-1, 500 nM Compound 42, 48 hours, compared to palbociclib 1 μM) was “reduction of cyclin E and cyclin D expression” and the “cyclin D expression” value (Cyclin D; OAW28) was “decreased”. For the same compound, the pRb expression (pRb; A2780, 250 nM Compound 42, 24 hours, compared to palbociclib 1 μM) was “some reduction of pRb expression”, the pRb expression (pRb; [1]) was “reduction” and the pRb expression (pRb; [2]) was “reduction of pRb expression”. The EC50 (SW626) was 334 nM, the “senescence (SA-βGal levels)” value (HCT-116) was “induced senescence” and the IC50 (ES-2; Ovarian ES-2, overexpression of Cyclin D, loss of p16 (mutant p53)) was 57 nM. For the same compound, the EC50 (ES-2; Table 7a, Ovarian (ES-2)) was 42 nM.
